Like-named read-outs stand apart in the source and are kept apart here.
What was measured:
Tetranychus urticae [1] = assay: Tetranychus urticae spray test, OP-resistant (bean leaf discs); format: in vivo; conditions: 500 g/ha, after 6 days
Description: 4. Tetranychus urticae—Spray Test, OP-Resistant
(§1) Solvent: 78.0 parts by weight of acetone
(§2) • 1.5 parts by weight of dimethylformamide Emulsifier: alkylaryl polyglycol ether
To produce further test concentrations, the preparation is diluted with emulsifier-containing water.
After 6 days, the efficacy in % is determined. 100% means that all the spider mites have been killed; 0% means that none of the spider mites have been killed.

Boophilus microplus = Boophilus microplus injection test; format: in vivo; conditions: 20 μg/animal, assessed after 7 days
Description: 1. Boophilus microplus—Injection Test
Solvent: dimethyl sulphoxide
To produce an appropriate active compound formulation, 10 mg of active compound are mixed with 0.5 ml of solvent and the concentrate is diluted with solvent to the desired concentration.
1 μl of the active compound solution is injected into the abdomen of 5 engorged adult female cattle ticks (Boophilus microplus). The animals are transferred into dishes and kept in a climate-controlled room.
The efficacy is assessed after 7 days by laying of fertile eggs. Eggs which are not visibly fertile are stored in a climate-controlled cabinet until the larvae hatch after about 42 days. An efficacy of 100% means that none of the ticks has laid any fertile eggs; 0% means that all the eggs are fertile.

[2] = log P by reversed-phase HPLC analogously to OECD Guideline 117; format: physicochemical; conditions: reversed-phase C18 HPLC column
Description: The log P values were determined analogously to OECD Guideline 117 (EC Directive 92/69/EEC) by HPLC (high-performance liquid chromatography) using reversed-phase columns (C 18), by the following methods:
[a] The LC-MS determination in the acidic range is effected at pH 2.7 with 0.1% aqueous formic acid and acetonitrile (contains 0.1% formic acid) as eluents; linear gradient from 10% acetonitrile to 95% acetonitrile. log P^[…] is also referred to as log P(HCOOH). [b] LC-MS determination in the neutral range is effected at pH 7.8 with 0.001 molar aqueous ammonium hydrogencarbonate solution and acetonitrile as eluents; linear gradient from 10% acetonitrile to 95% acetonitrile. log P^[…] is also referred to as log P(neutral).
Calibration is effected with solutions of a homologous series of unbranched alkan-2-ones (having 3 to 16 carbon atoms) with known log P values (log P values determined on the basis of the retention times by linear interpolation between two successive alkanones).

Tetranychus urticae [3] = assay: Comparative Tetranychus urticae spray test, OP-resistant (TETRUR); format: in vivo; conditions: 144 h
Description: 2. Tetranychus urticae—Spray Test; OP-Resistant ([…])
as §1, §2
(§3) To produce an appropriate active compound formulation, 1 part by weight of active compound is dissolved using the specified parts by weight of solvent and made up with water containing an emulsifier concentration of 1000 ppm until the desired concentration is attained. To produce further test concentrations, the preparation is diluted with emulsifier-containing water.
Discs of bean leaves (Phaseolus vulgaris) infested by all stages of the greenhouse red spider mite (Tetranychus urticae) are sprayed with an active compound formulation of the desired concentration.
After the desired period of time, the effect in % is determined 100% means that all the spider mites have been killed; 0% means that none of the spider mites have been killed.

Meloidogyne incognita = Meloidogyne incognita test (sand, lettuce, gall formation after 14 days); format: in vivo; conditions: 20 ppm
Description: 2. Meloidogyne Incognita Test
Solvent: 125.0 parts by weight of acetone
To produce an appropriate active compound formulation, 1 part by weight of active compound is mixed with the stated amount of solvent and the concentrate is diluted with water to the desired concentration.
Vessels are filled with sand, active compound solution, an egg/larvae suspension of the southern root-knot nematode (Meloidogyne incognita) and lettuce seeds. The lettuce seeds germinate and the plants develop. The galls develop on the roots.
After 14 days, the nematicidal efficacy in % is determined by the formation of galls. 100% means that no galls were found; 0% means that the number of galls on the treated plants corresponds to the untreated control.

Phaedon cochleariae [4] = assay: Phaedon cochleariae spray test; format: in vivo; conditions: 500 g/ha, after 7 days
Description: 3. Phaedon cochleariae—Spray Test
Solvent: 78.0 parts by weight of acetone • • 1.5 parts by weight of dimethylformamide Emulsifier: alkylaryl polyglycol ether
as §3
(§4) Discs of Chinese cabbage leaves (Brassica pekinensis) are sprayed with an active compound formulation of the desired concentration and, after drying, populated with larvae of the mustard beetle (Phaedon cochleariae).
After 7 days, the efficacy in % is determined 100% means that all the beetle larvae have been killed; 0% means that no beetle larvae have been killed.

Tetranychus urticae [5] = assay: Tetranychus urticae spray test, OP-resistant (bean plants); format: in vivo; conditions: 20 ppm, after 7 days
Description: 6. Tetranychus urticae—Spray Test, OP-Resistant
Solvent: 7 parts by weight of dimethylformamide
Emulsifier: alkylaryl polyglycol ether
To produce an appropriate active compound formulation, 1 part by weight of active compound is dissolved using the specified parts by weight of solvent and made up with water containing an emulsifier concentration of 1000 ppm until the desired concentration is attained. To produce further test concentrations, the preparation is diluted with emulsifier-containing water. If the addition of ammonium salts or/and penetrants is required, these are each added in a concentration of 1000 ppm to the formulation solution.
Bean plants (Phaseolus vulgaris) heavily infested by all stages of the greenhouse red spider mite (Tetranychus urticae) are treated by spraying with the active compound formulation in the desired concentration.
After 7 days, the efficacy in % is determined. 100% means that all the spider mites have been killed; 0% means that none of the spider mites have been killed.

Phaedon cochleariae [6] = assay: whole plant or invertebrate; format: in vivo; conditions: 168 h
Description: 1. Phaedon cochleariae—Spray Test (PHAECO)
as §1, §2, §3, §4
After the desired period of time, the effect in % is determined. 100% means that all the beetle larvae have been killed; 0% means that no beetle larvae have been killed.

[7] = acidic range, pH 2.7, 0.1% aqueous formic acid/acetonitrile, read-out: logP (HCOOH)
[8] = neutral range, pH 7.8, 0.001 molar aqueous ammonium hydrogencarbonate/acetonitrile, read-out: logP (neutral)

Structure (SMILES)	efficacy (spider mites killed) (Tetranychus urticae [1])	efficacy (no fertile eggs laid) (Boophilus microplus)	nematicidal efficacy (formation of galls) (Meloidogyne incognita)	also measured
O=c1cc(C(F)(F)F)ncn1-c1cc([S+]([O-])CC(F)(F)F)c(Cl)cc1Cl (racemic) [Example 4]	100%	100%		
Cc1cc(C)c([S+]([O-])CC(F)(F)F)cc1-n1cnc(C(F)(F)F)cc1=O (racemic) [Example 6, 3-[2,4-Dimethyl-5-(2,2,2-trifluoroethylsulphinyl)phenyl]-6-(trifluoromethyl)pyrimidin-4-one]	100%	100%		chromatographic logP [2, 7]: 2.43; chromatographic logP [2, 8]: 2.39; mortality at 20 g/ha (Tetranychus urticae [3]; TETRUR, 20 g/ha, 6 dat, read-out: % mortality): 100%
Cc1ccc(-n2cncc(C)c2=O)cc1[S+]([O-])CC(F)(F)F (racemic) [Example 27]			90%	
Cc1cc(C)c([S+]([O-])CC(F)(F)F)cc1-n1cnc(C(F)(F)C(F)(F)F)cc1=O (racemic) [Example 33]	100%		100%	
O=c1cc(C(F)(F)F)ncn1-c1ccc(Cl)c([S+]([O-])CC(F)(F)F)c1 (racemic) [Example 34]	100%	100%		efficacy (beetle larvae killed) (Phaedon cochleariae [4]): 83%
O=c1cc(C(F)(F)F)ncn1-c1cc([S+]([O-])CC(F)(F)F)c(Br)cc1F (racemic) [Example 41]	100%		90%	
Cc1cc(C)c([S+]([O-])CC(F)(F)F)cc1-n1cnc(C(F)(F)C(F)(F)F)cc1=O (racemic) [Example 45]	100%		100%	
Cc1cc(=O)n(-c2cc([S+]([O-])CC(F)(F)F)c(C)cc2F)cn1 (racemic) [Example 46]	100%			efficacy (beetle larvae killed) (Phaedon cochleariae [4]): 83%
Cc1ccc(-n2cnc(C(F)(F)F)cc2=O)cc1[S+]([O-])CC(F)(F)F (racemic) [Example 50]	100%	100%		
Cc1cc(Cl)c(-n2cnc(C(F)(F)F)cc2=O)cc1[S+]([O-])CC(F)(F)F (racemic) [Example 53]	100%	100%		efficacy (beetle larvae killed) (Phaedon cochleariae [4]): 100%
Cc1cc(F)c(-n2cnc(C(F)F)cc2=O)cc1[S+]([O-])CC(F)(F)F (racemic) [Example 55]	100%			efficacy (beetle larvae killed) (Phaedon cochleariae [4]): 100%
Cc1cc(F)c(-n2cnc(C(F)(F)C(F)(F)F)cc2=O)cc1[S+]([O-])CC(F)(F)F (single isomer, unassigned) [Example 18]	100%			efficacy (beetle larvae killed) (Phaedon cochleariae [4]): 83%
Cc1cc(F)c(-n2cnc(C(F)(F)C(F)(F)F)cc2=O)cc1[S+]([O-])CC(F)(F)F (single isomer, unassigned) [Example 26]	100%	100%	90%	
Cc1cc(C)c([S+]([O-])CC(F)(F)F)cc1-n1cnc(C(F)(F)F)cc1=O (single isomer, unassigned) [Example 49]				efficacy (spider mites killed) (Tetranychus urticae [5]): 100%
Cc1cc(C)c([S+]([O-])CC(F)(F)F)cc1-n1cnc(C(F)(F)F)cc1=O (single isomer, unassigned) [Example 56]				efficacy (spider mites killed) (Tetranychus urticae [5]): 100%
N#Cc1ccc(-n2cnc(C(F)(F)F)cc2=O)cc1[S+]([O-])CC(F)(F)F (centres unmarked) [4-[6-oxo-4-(trifluoromethyl)pyrimidin-1-yl]-2-(2,2,2-trifluoroethylsulphinyl)benzonitrile, reference compound]				mortality at 500 g/ha (Phaedon cochleariae [6]): 0%; mortality at 20 g/ha (Tetranychus urticae [3]): 0%
N#Cc1cc(F)c(-n2cnc(C(F)(F)F)cc2=O)cc1[S+]([O-])CC(F)(F)F (centres unmarked) [5-fluoro-4-[6-oxo-4-(trifluoromethyl)pyrimidin-1-yl]-2-(2,2,2-trifluoroethylsulphinyl)benzonitrile]				mortality at 500 g/ha (Phaedon cochleariae [6]): 50%
Cc1cc(C)c(-n2cnc(C(F)(F)F)cc2=O)cc1SCC(F)(F)F [Example 5, 3-[2,4-Dimethyl-5-(2,2,2-trifluoroethylsulphanyl)phenyl]-6-(trifluoromethyl)pyrimidin-4-one]	100%	100%		chromatographic logP [2, 7]: 3.56; chromatographic logP [2, 8]: 3.5
Cc1cc(F)c(-n2cnc(C(F)(F)C(F)(F)F)cc2=O)cc1SCC(F)(F)F [Example 9]	100%	100%	90%	efficacy (beetle larvae killed) (Phaedon cochleariae [4]): 100%
Cc1ccc(-n2cncc(F)c2=O)cc1SCC(F)(F)F [Example 12]	90%		90%	
Cc1cc(F)c(-n2cnc(C(C)(F)F)cc2=O)cc1SCC(F)(F)F [Example 22]	100%	100%		
Cc1cc(C)c(-n2c(C)nc(C(F)(F)F)cc2=O)cc1SCC(F)(F)F [Example 30]	100%		90%	
Cc1cc(=O)n(-c2cc(SCC(F)(F)F)c(C)cc2F)cn1 [Example 44]	100%			efficacy (beetle larvae killed) (Phaedon cochleariae [4]): 100%
Cc1ccc(-n2cnc(C(F)(F)F)cc2=O)cc1SCC(F)(F)F [Example 47]	100%	100%		
Cc1cc(Cl)c(-n2cnc(C(F)(F)F)cc2=O)cc1SCC(F)(F)F [Example 59]	100%	100%		
